In ChEMBL document CHEMBL1127236, “Synthesis and biological activities of fluorine-substituted ()-indolactam-V, the core structure of tumor promoter teleocidins” (1994):

Columns and labels:
Mus musculus = species on record: Mus musculus; assay: In vitro binding affinity towards TPA receptor in mouse epidermal particulate fraction using [3H]TPA as radioligand
HeLa [1] = assay: Compound was tested for stimulation of the incorporation of 32Pi into phospholipids of HeLa cells at 10E-8 M concentration; type: functional, Homo sapiens
HeLa [2] = assay: Compound was tested for stimulation of the incorporation of 32Pi into phospholipids of HeLa cells at 10E-6 M concentration; type: functional, Homo sapiens
HeLa [3] = assay: Compound was tested for stimulation of the incorporation of 32Pi into phospholipids of HeLa cells at 10E-5 M concentration; type: functional, Homo sapiens
HeLa [4] = assay: Compound was tested for stimulation of the incorporation of 32Pi into phospholipids of HeLa cells at 10E-7 M concentration; type: functional, Homo sapiens
HeLa [5] = assay: Compound was tested for stimulation of the incorporation of 32Pi into phospholipids of HeLa cells at 10E-4 M concentration; type: functional, Homo sapiens

Structure (SMILES)	pID50 (Mus musculus)	Relativity (HeLa [1])	Relativity (HeLa [2])	Relativity (HeLa [3])	Relativity (HeLa [4])	Relativity (HeLa [5])
CC(C)[C@H]1C(=O)N[C@H](CO)Cc2c[nH]c3cc(F)cc(c23)N1C	5.85	1.18 c.p.m. mg-1	7.43 c.p.m. mg-1	6.87 c.p.m. mg-1	1.78 c.p.m. mg-1	–
CC(C)[C@H]1C(=O)N[C@H](CO)Cc2c[nH]c3cccc(c23)N1C [INDOLACTUM]	5.97	1.04 c.p.m. mg-1	4.69 c.p.m. mg-1	7.82 c.p.m. mg-1	1.36 c.p.m. mg-1	–
CC(C)[C@H]1C(=O)N[C@H](CO)Cc2c[nH]c3ccc(F)c(c23)N1C	4.41	–	1.28 c.p.m. mg-1	3.57 c.p.m. mg-1	1.29 c.p.m. mg-1	5.32 c.p.m. mg-1
